Data published in patent US20150290294A1, “METHODS FOR INHIBITING PLATELET AGGREGATION USING GLP-1 RECEPTOR AGONISTS” (priority 2012, published 2015).
Ends that are not written are not given here.

Legend:
platelets = details: associated with inhibitory effect on intracellular free calcium and tyrosine phosphorylation; cited from earlier work
[1] = system: human gel-filtered platelets; experiment: Thrombin-induced platelet aggregation (aggregometer); format: cell-based; details: for effect on human platelet aggregation after thrombin stimulation: 10 nM each, 0.5 U thrombin; for effect on human platelet aggregation after thrombin stimulation / effect on thrombin-induced human platelet aggregation vs PBS control: 15 min 37 °C; for effect on thrombin-induced human platelet aggregation vs PBS control: 100 pM-1 uM (10^-10 to 10^-6 M)
Procedure: Platelets were then stimulated with thrombin and aggregation was measured using an aggregometer.

MEG-01 cells = experiment: Intracellular cAMP EIA assay; format: cell-based, human
Procedure: An EIA kit (Cayman Chemicals) was employed to measure intracellular cAMP levels. […] 3-isobutyl-1-methylxanthine (IBMX) was added to each well at a concentration of 0.5 μM and allowed to incubate for 10 min at 37° C. to inhibit phosphodiesterase activity. As a positive control for cAMP generation in MEG-01 cells, PGI2 was added at a concentration of 0.02 ng/ml to control wells and incubated for 10 min at 37° C. PBS was used as a negative control. After incubation, cells were lysed by adding EDTA to a concentration of 10 mM. Lysed cells were transferred to 1.5 ml eppendorf tubes and boiled for 5 min at 95° C. Samples were spun down at 10000 xg for 15 min at 4° C. Supernatant was removed and frozen at −80° C. The cAMP EIA kit assay was then carried out according to manufacturer's instructions.
Given the limited specificity of Abs raised against GPCRs, RT-PCR was performed on RNA from MEG-01 cells with primers designed to yield full-length human GLP-1R cDNA.

N[C@@H](CC(=O)N1CCn2c(nnc2C(F)(F)F)C1)Cc1cc(F)c(F)cc1F [sitagliptin]
anti-platelet activity (platelets): exhibited anti-platelet activity

GLP-1(9-36) (EGTFTSDVSSYLEGQAAKEFIAWLVKGR-NH2)
effect on human platelet aggregation after thrombin stimulation [1]: delayed human platelet aggregation | effect on human platelet aggregation after thrombin stimulation ([1]; listed as GLP-1(9-36)^NH2): inhibited human platelet aggregation, but to a lesser extent than GLP-1(7-36)^NH2

GLP-1(7-36)
effect on thrombin-induced human platelet aggregation vs PBS control ([1]; thrombin 0.125 U): delayed and reduced | effect on thrombin-induced human platelet aggregation vs PBS control ([1]; thrombin 0.125 U, listed as GLP-1): delayed and reduced platelet aggregation | effect on human platelet aggregation after thrombin stimulation [1]: delayed human platelet aggregation | total area under curve of aggregation ([1]; between 0.1 nM and 100 nM, thrombin 0.125 U, not significant, n=3): some inhibition of platelet activity | intracellular cAMP, qualitative (MEG-01 cells; 15 min incubation, 100 pM to 100 nM, n=3): dose-dependent increase in cAMP

CCCCC[C@H](O)/C=C/[C@@H]1[C@H]2C/C(=C/CCCC(=O)O)O[C@H]2C[C@H]1O [PGI2, prostacyclin PGI2, reference compound]
cAMP response (positive control) (MEG-01 cells; PGI2 0.02 ng/ml, 10 min 37 °C): 16 fold
